Measurements reported in ChEMBL document CHEMBL1201862, “PubChem BioAssay data set” (2004).
Active and inactive are the calls of the source.

Columns and labels:
Fatty acid synthase [1] = biological target: T1, Fatty acid synthase (Homo sapiens, UniProt P49327); assay: inhibition of human FAS-TE enzyme activity – biochemical, endpoint fluorescence intensity, uHTS hits, dose response (AID 624327); assay type: functional;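 further: fluorescence from hydrolysis of an O-methyl fluorescein acyl ester substrate by the enzyme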
Fatty acid synthase [2] = biological target: T1, Fatty acid synthase; assay: inhibition of human FAS-TE enzyme activity – biochemical, kinetic fluorescence intensity, dose response (AID 624326); assay type: functional;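 further: rate of fluorescence rise from hydrolysis of a fluorogenic O-methyl fluorescein ester substrate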
cells [3] = assay type: functional, cell-based
cells [4] = assay type: functional, cell-based; remark: listed apart in the source
[5] = biological target: FAD-linked sulfhydryl oxidase ALR (Homo sapiens, UniProt P55789); assay: ALR-catalysed DTT oxidation blockers – biochemical, H2O2 detection, luminescence, cherry-pick, dose response (AID 493248)
Genome polyprotein = Genome polyprotein (dengue virus type 2, UniProt P29990); assay: flavivirus cap methylation enzyme inhibition – biochemical, confirmation dose response, primary screen (AID 588689); assay type: functional
[6] = biological target: T2, Replicative DNA helicase DnaB (Mycobacterium tuberculosis, UniProt P9WMR3); assay: DnaB intein splicing inhibitors, dose response, biochemical, cell-free fluorescence (AID 449749); assay type: functional
T2 sequence (P9WMR3 whole entry): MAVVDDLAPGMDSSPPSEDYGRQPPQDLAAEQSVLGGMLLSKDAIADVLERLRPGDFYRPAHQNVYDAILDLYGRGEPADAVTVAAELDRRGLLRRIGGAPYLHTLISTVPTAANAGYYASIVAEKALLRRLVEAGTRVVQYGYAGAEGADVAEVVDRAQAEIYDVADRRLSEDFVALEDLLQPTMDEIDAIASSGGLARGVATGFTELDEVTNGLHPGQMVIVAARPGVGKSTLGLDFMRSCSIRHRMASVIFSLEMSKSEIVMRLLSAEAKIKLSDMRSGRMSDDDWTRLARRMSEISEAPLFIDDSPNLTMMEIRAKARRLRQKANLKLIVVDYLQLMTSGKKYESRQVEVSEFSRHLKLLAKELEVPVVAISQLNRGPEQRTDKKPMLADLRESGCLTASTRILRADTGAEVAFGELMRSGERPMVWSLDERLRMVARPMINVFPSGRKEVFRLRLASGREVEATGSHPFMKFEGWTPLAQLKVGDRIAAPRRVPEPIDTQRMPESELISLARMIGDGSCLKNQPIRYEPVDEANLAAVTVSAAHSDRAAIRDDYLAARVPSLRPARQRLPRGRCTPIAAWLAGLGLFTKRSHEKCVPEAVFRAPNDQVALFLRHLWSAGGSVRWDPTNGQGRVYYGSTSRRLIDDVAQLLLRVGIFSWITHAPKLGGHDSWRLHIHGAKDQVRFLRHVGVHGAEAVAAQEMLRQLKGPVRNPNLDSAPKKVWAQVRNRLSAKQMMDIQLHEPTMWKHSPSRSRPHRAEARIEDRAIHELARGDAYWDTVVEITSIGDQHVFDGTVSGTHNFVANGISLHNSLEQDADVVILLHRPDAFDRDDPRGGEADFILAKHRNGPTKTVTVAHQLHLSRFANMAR

Protein RecA = biological target: T3, Protein RecA (Mycobacterium tuberculosis, UniProt P9WHJ3); assay: Fluorescence Cell-Free Homogeneous Dose Retest to Identify Inhibitors of RecA-Intein Splicing Activity. [Related pubchem assays (depositor defined):AID2097, AID2223, AID489010, AID492950]; assay type: functional
T3 sequence (P9WHJ3 whole entry): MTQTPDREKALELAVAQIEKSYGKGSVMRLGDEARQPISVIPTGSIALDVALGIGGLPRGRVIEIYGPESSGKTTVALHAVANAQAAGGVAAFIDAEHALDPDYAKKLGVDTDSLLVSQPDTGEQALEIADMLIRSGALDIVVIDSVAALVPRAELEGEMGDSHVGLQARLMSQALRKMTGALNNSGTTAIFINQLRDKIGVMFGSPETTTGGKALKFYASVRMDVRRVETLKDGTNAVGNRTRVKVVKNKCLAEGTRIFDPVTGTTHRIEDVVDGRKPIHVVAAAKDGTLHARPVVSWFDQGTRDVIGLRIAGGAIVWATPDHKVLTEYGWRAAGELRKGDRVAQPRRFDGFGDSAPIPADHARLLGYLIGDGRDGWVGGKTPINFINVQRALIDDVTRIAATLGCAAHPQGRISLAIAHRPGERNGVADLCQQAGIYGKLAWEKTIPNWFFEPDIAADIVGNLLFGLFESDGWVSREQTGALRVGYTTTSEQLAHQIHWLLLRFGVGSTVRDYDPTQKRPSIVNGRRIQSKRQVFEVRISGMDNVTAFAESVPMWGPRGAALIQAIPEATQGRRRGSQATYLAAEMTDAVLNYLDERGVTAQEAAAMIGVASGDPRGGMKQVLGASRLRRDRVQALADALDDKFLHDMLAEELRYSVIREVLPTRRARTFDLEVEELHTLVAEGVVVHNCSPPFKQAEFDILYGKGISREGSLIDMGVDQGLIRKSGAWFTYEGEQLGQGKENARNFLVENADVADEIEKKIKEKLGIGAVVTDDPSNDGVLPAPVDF

[7] = biological target: T4, Heat shock factor protein 1 (Mus musculus, UniProt P38532); assay: decrease of HSF1-responsive luciferase luminescence – cell-based, NIH3T3, dose retest, confirmation (AID 2382); assay type: functional;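 further: NIH3T3 fibroblasts with HSF1-driven luciferase reporter stressed by proteasome inhibitor MG132; luminescence from HSF1-driven luciferase expression after 8 hours of MG132 stress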
T4 sequence (P38532 whole entry): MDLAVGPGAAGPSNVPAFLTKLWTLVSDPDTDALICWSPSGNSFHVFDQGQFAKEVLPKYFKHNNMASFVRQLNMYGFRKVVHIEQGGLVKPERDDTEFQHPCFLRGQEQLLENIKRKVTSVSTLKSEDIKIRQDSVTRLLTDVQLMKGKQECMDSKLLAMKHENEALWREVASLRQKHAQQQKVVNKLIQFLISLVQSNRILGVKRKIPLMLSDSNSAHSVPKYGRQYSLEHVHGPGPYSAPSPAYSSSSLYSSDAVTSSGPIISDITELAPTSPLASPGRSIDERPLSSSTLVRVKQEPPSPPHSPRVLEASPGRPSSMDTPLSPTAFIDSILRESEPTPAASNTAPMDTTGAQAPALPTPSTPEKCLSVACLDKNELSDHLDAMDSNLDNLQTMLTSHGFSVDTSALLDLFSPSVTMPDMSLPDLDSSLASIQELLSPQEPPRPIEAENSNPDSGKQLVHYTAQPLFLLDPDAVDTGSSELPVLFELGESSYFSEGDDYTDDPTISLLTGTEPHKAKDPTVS

BJ [8] = assay: BJ-TERT-LT-ST fibroblast viability loss – cell-based, RAS-independent, luminescence, dose response (AID 1935); assay type: functional; conditions: Homo sapiens;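 further: BJ fibroblasts immortalized with TERT plus LT and ST oncogenes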
BJ [9] = assay: cells; assay type: functional, cell-based; conditions: Homo sapiens
[10] = DRD fibroblast viability loss – cell-based, non-viral oncogenic, luminescence, dose response (AID 1934); assay type: functional; conditions: Homo sapiens
BJ [11] = assay: BJ-TERT fibroblast viability loss – cell-based, RAS-independent, luminescence, dose response (AID 1933); assay type: functional; conditions: Homo sapiens
[12] = blockers of HIV-1 envelope-mediated cell-cell fusion – cherry-pick, dose response (AID 652057); assay type: functional, cell-based
[13] = HIV-1 AD8 envelope cell-cell fusion blockers – cherry-pick, dose response (AID 652062); assay type: functional, cell-based;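 further: luciferase signal from cell-cell fusion driven by HIV-1 clade B AD8 Env; potency is for inhibitors of fusion seen as a drop in luminescence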
[14] = off-target signal loss in HeLa-CEM21 co-culture – HeLa F-luc CTL cells, cherry-picked, counter-screen for HIV-1 Env fusion inhibitor project, dose response (AID 652040); assay type: functional, cell-based;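 further: potency for signal decrease marking cytotoxic or nonspecific inhibition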
[15] = biological target: Induced myeloid leukemia cell differentiation protein Mcl-1 (Homo sapiens, UniProt Q07820); assay type: functional
[16] = blockers of HIV-1 ZM109 envelope-driven cell-cell fusion – HeLa effector, CEM target cells, luciferase, cherry-pick, dose response (AID 652058); assay type: functional, cell-based;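 further: luciferase signal from HIV-1 Env mediated cell-cell fusion of effector and target cells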
[17] = NIH3T3 cell viability loss – ATP luminescence, mouse fibroblasts, counter-screen, dose response (AID 2010); assay type: functional, cell-based;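 further: cells exposed to compound for about 90 hours before reading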
[18] = Trypanosoma cruzi growth suppression in host cells – NIH3T3 host cells, beta-gal luminescence, confirmation (AID 2044); assay type: functional, cell-based;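 further: intracellular parasites grown in NIH/3T3 mouse fibroblasts as host cells; luminescent beta-galactosidase reporter signal from transgenic T. cruzi replicating inside host cells; inhibitors lower the luminescence signal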

T1 sequence (P49327 whole entry): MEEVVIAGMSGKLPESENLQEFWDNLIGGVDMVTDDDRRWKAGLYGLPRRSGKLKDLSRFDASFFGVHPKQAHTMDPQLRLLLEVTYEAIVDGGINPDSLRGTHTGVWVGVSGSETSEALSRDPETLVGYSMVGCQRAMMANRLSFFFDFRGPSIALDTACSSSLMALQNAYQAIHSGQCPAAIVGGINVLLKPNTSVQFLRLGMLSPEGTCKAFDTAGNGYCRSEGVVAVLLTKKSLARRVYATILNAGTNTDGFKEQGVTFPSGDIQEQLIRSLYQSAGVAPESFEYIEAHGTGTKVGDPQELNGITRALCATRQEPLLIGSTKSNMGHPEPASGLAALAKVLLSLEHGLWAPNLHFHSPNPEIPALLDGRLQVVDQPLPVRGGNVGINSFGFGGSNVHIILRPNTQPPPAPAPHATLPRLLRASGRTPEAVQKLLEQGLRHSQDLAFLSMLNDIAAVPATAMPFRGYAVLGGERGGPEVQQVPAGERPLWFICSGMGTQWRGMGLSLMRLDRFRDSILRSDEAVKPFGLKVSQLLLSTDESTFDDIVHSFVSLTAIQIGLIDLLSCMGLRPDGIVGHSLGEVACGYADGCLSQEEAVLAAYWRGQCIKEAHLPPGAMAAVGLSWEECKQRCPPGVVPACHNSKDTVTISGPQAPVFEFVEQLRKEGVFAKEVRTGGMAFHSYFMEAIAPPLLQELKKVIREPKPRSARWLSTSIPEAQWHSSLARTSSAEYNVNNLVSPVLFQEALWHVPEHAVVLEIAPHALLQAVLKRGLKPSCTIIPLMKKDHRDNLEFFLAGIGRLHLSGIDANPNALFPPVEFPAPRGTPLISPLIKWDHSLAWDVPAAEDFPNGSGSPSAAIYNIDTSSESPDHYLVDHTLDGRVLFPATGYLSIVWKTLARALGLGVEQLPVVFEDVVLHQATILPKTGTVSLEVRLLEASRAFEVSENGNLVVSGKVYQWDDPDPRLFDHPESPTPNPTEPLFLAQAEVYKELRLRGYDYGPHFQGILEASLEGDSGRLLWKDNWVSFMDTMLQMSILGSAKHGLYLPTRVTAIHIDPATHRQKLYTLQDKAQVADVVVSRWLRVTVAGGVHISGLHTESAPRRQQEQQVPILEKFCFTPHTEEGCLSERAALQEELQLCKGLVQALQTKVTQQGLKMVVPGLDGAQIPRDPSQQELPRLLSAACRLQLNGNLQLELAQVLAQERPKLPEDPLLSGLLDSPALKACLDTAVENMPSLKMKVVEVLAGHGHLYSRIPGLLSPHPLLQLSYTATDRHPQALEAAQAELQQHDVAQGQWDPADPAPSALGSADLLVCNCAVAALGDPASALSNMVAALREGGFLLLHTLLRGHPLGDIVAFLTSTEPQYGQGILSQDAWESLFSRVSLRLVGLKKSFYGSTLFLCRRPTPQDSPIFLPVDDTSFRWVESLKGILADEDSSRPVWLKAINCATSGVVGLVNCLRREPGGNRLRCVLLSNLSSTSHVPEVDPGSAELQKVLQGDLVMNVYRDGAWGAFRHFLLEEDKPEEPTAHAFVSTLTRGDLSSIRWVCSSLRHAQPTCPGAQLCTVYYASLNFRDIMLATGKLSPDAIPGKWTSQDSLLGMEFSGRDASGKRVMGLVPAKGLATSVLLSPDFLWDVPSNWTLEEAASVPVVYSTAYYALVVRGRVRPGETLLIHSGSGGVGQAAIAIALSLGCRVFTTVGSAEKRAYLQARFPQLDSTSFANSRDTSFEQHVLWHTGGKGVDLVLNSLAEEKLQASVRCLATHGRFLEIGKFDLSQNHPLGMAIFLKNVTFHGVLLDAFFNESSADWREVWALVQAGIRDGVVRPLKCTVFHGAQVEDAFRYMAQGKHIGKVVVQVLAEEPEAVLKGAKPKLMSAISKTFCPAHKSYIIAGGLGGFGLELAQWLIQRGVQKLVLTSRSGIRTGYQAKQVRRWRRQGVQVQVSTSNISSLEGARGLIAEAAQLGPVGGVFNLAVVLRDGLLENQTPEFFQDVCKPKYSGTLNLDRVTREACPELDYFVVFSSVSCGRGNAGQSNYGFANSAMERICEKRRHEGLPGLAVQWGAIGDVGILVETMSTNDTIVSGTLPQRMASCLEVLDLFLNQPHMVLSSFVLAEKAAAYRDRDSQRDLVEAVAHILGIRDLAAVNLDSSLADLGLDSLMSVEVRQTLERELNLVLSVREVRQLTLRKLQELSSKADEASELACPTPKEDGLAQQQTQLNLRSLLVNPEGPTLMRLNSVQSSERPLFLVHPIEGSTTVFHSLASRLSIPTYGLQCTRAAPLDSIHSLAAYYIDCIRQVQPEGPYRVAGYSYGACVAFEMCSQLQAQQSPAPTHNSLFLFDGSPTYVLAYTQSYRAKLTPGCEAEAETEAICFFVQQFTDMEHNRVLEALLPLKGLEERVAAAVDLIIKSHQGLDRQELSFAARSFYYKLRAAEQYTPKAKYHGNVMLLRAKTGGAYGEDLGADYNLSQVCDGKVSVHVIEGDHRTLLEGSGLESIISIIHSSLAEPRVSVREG
Chain of Genome polyprotein (P29990 2492-3391 limits assumed): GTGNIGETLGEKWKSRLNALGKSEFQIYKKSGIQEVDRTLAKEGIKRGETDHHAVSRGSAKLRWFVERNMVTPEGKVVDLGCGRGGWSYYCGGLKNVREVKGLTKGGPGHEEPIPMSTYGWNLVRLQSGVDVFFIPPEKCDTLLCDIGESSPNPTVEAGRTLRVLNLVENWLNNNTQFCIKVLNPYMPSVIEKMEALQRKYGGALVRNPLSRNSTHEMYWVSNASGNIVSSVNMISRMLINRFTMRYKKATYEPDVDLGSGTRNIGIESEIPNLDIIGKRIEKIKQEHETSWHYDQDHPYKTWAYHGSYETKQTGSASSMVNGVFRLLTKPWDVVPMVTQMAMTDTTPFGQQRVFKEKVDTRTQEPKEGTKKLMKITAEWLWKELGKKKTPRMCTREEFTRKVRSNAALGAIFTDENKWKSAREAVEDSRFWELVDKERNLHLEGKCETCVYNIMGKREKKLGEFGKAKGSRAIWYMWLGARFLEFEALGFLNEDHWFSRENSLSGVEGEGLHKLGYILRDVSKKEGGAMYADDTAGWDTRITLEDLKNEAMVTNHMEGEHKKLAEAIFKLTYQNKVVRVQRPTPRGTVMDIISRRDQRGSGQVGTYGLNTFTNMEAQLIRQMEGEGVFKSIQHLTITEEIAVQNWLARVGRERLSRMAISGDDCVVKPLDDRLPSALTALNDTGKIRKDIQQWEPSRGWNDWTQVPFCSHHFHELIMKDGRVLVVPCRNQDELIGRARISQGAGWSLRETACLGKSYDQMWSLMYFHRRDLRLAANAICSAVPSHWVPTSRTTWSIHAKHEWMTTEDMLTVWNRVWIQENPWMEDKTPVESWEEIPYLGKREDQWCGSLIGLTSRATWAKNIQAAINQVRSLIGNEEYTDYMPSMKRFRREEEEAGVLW
Chain of FAD-linked sulfhydryl oxidase ALR (P55789 whole entry): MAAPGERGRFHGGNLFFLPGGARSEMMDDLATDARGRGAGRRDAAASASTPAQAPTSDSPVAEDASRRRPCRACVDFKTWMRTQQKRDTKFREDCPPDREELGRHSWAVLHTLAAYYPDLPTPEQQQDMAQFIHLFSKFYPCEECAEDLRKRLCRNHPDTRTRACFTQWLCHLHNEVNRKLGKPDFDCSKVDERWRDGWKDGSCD
Chain of Induced myeloid leukemia cell differentiation protein Mcl-1 (Q07820 whole entry, the tested form may be a part): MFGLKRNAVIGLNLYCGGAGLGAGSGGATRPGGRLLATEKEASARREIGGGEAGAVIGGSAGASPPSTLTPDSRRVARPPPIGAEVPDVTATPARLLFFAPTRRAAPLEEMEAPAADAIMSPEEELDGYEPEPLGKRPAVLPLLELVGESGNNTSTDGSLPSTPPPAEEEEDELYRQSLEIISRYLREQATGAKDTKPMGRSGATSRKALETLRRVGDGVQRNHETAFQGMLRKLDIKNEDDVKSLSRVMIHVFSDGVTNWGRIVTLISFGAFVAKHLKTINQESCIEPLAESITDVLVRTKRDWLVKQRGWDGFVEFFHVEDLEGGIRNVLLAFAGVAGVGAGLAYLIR

O=C(Nc1ncc2c(n1)-c1ccccc1OC2)c1cccc([N+](=O)[O-])c1
IC50 (Fatty acid synthase [1]): 9.93 µM (active) | IC50 (Fatty acid synthase [2]): 13 µM (active)

COc1ccc2cc(C(C)C(=O)N3CCC(C(N)=O)CC3)ccc2c1 (stereo unspecified)
EC50 (cells [3]): > 350 µM (not active) | EC50 (cells [4]): > 350 µM (not active)

O=C(C[C@H]1C[C@H](C(=O)N2CCOCC2)[C@@]2(CCC3CCCC3)c3[nH]c4ccc(Cl)cc4c3CCN2C1=O)NCCc1ccccn1
IC50 (Fatty acid synthase [1]): 1.03 µM (active) | IC50 (Fatty acid synthase [2]): 1.15 µM (active)

COC(=O)Nc1ccc(S(=O)(=O)N(C)C)cc1
EC50 (cells [3]): > 350 µM (not active) | EC50 (cells [4]): > 350 µM (not active)

COc1cccc(-n2c(SCC(=O)N3CCOCC3)nc3c4ccccc4nc-3c2O)c1
EC50 (cells [3]): > 350 µM (not active) | EC50 (cells [4]): > 350 µM (not active)

CC(=O)Nc1ccc2c(c1)CCCC2=O
EC50 (cells [3]): > 350 µM (not active) | EC50 (cells [4]): > 350 µM (not active)

Cc1ccc(C(=O)Nc2ccccc2C(=O)O)cc1S(=O)(=O)Nc1ccc(Br)cc1
AC50 [5]: 628 nM (active) | IC50 (Genome polyprotein): 49.8 µM (active)

COc1ccc(/C=C(\C#N)c2nc3ccccc3[nH]2)cc1O
EC50 (cells [3]): 8.05 µM (active) | EC50 (cells [4]): > 350 µM (not active)

CCc1ccccc1N1C(=O)C(Cl)=C(N2CCOCC2)C1=O
AC50 [6]: 6.57 µM (active) | EC50 (Protein RecA): 4.01 µM (active) | IC50 (Genome polyprotein): 83.2 µM (active)

CC(CCc1ccccc1)NC(=O)c1cccc([N+](=O)[O-])c1 (stereo unspecified)
IC50 (Fatty acid synthase [1]): 6.29 µM (active) | EC50 [7]: > 195 µM (not active) | IC50 (Fatty acid synthase [2]): 7.07 µM (active)

CC(C)C(=O)Nc1sc2c(c1C(N)=O)CCN(Cc1ccccc1)C2
EC50 (BJ [8]): > 150 µM (not active) | EC50 (BJ [9]): > 150 µM (not active) | EC50 [10]: 47.8 µM (active) | EC50 (BJ [11]): > 150 µM (not active)

Cc1cccc(NC(=O)C2CCN(S(=O)(=O)c3ccc4c(c3)OCCCO4)CC2)n1
AC50 [12]: 66.2 µM (active) | AC50 [13]: 13.1 µM (active) | AC50 [14]: 42.2 µM (active)

C=CCOC(=O)/C(=C\c1ccccc1)NC(=O)c1ccc(C)cc1
IC50 [15]: 2.49 µM (not active)

C=C1CCN([C@@H](CC(C)C)C(=O)Nc2ccc(OC)cc2)S(=O)(=O)c2ccccc21
AC50 [12]: 2.12 µM (active) | AC50 [16]: 2.47 µM (active) | AC50 [13]: 3.63 µM (active) | AC50 [14]: 4.03 µM (active)

CCN(CC)c1nc(Nc2ccccc2)nc(Oc2ccc(O)nn2)n1
AC50 [12]: 6.13 µM (active) | AC50 [16]: 9.89 µM (active) | AC50 [13]: 9.57 µM (active) | AC50 [14]: 5.99 µM (active)

CC(C)OC(=O)/C(C#N)=C/c1cn(C)c2ccccc12
IC50 (Fatty acid synthase [1]): 13.8 µM (active) | IC50 (Fatty acid synthase [2]): 11.1 µM (active)

O=C(CCN1C(=O)/C(=C/c2ccccc2Cl)SC1=S)Nc1ccccn1
IC50 (Fatty acid synthase [1]): 6.7 µM (active) | IC50 (Fatty acid synthase [2]): 1.96 µM (active)

COC(=O)Cn1c(=O)c(C(=O)CCl)c(N)n(Cc2ccccc2)c1=O
EC50 (BJ [8]): 16.3 µM (inconclusive) | EC50 (BJ [9]): 7 µM (active) | EC50 [10]: 4.86 µM (inconclusive) | EC50 (BJ [11]): 0.797 µM (active)

CC(NC(=O)CN(C)CC(=O)Nc1ccc(Cl)c(C(F)(F)F)c1)c1ccccc1 (stereo unspecified)
AC50 [12]: 4.06 µM (active) | AC50 [16]: 8.39 µM (active) | AC50 [13]: 14.9 µM (active) | AC50 [14]: 15.7 µM (active)

O=C(Cn1cnc2cc([N+](=O)[O-])ccc2c1=O)Nc1ccc2c(c1)OCO2
IC50 (Fatty acid synthase [1]): 4.19 µM (active) | EC50 [17]: > 60 µM (not active) | IC50 (Fatty acid synthase [2]): 3.65 µM (active) | EC50 [18]: 2.31 µM (active)

COc1ccc(C(=O)Nn2c(SCc3cccc([N+](=O)[O-])c3)nc3ccccc3c2=O)cc1
IC50 (Fatty acid synthase [1]): 17.5 µM (active) | IC50 (Fatty acid synthase [2]): 14.3 µM (active)
